Reference: patent publication US6528049B2, “Bisexual attractants, aggregants and arrestants for adults and larvae of codling moth and other species of lepidoptera” (Trece, Inc., priority 1999, dated 2003)
Where “and” joins values, the source holds several entries; their conditions need not be identical. Identical values can stand only once.

Key:
Format in all cases: in vivo, Cydia pomonella
[1] = system: codling moth; assay: Inherent attractancy field test of HPV blends in baited sticky traps in walnut orchard; details: walnut orchard; blends 10 mg/white septa; ethyl (2E,4Z)-2,4-decadienoate 5 mg
Protocol: The blends listed in Table 2 were then field tested in walnut orchards for their attractancy to male and female codling moths, and also for enhancement with synthetic codling moth pheromone and other additives identified above. Their total capture (both males and females), and their individual male and female capture were determined and results obtained, were compared to insect capture obtained with purified individual ester, compound #25 namely ethyl (2E,4Z)-2,4-decadienoate, and to the codling moth male sex pheromone compound #26 in Table 3.
Individual blends containing representative aldehyde, alcohol, ester, monoterpene or sesquiterpene blends were provided in the traps in 10 mg/white septa.
Individual host-plant volatile (HPV) blends identified by the #1-23 in Table 3 were tested for codling moth attractancy in a walnut orchard, and the results were compared to the isolated purified ethyl (2E,4Z)-2,4-decadienoate (#25), to pheromone (#26) and to solvent controls (#24).
Twenty-five HPV blends and eight individual compounds were field tested. One synthetic blend, “ester blend #10,” elicited excellent codling moth attraction. In field tests, the other tested blends (see Table 3) and compounds captured no moths over a three month period, except for an “apple-skin surface extract” (Golden Delicious, ether solvent) (Σ=3 codling moth captured, 1♂: 2♀♀) and the individual compound, (E,E)-α-farnesene (Σ=1♂ codling moth captured). The field tests are presented in Table 3 and show attraction specificity for HPV ester blend #10.
(§1) Sticky traps (ICP and IIB traps, Trécé, Inc. Salinas, Calif.) were baited with either extracts, blends of HPVs, or individual HPVs (>95% purity) that evaporated from impregnated rubber septa. HPV blends, or individual HPV compounds, were diluted in hexane and pipetted onto rubber septa at approximate doses of 10 mg/septum. A single treatment septum was placed in each sticky wing-trap, and hung approximately six meters high in the outer walnut canopy. Trap liners and treatment HPV septa were replaced every 10-14 days and pheromone septa every month and tests were conducted throughout two summers.
(§2) A replicated series of different HPV treatment traps, control “blank” (unbaited) trap, and a commercial pheromone-baited trap (Trécé, Inc.) were distributed 5 trees apart throughout two distant Hartley walnut orchards and validated in 12 walnut orchards. The orchards were distinct, with one using three summer insecticide sprays and the other had no spraying. Thus, these test orchards had low vs. moderate relative populations of codling moths. Significant effects on the gender of codling moths captured were judged by paired tests, either T-test or a nonparametric test.

[2] = system: codling moth; assay: Trap capture with purified (2E,4E) and (2E,4Z) 2,4-decadienoic acid esters; details: 1 mg dose/gray septum; four orchards; means of 21 trap checks
Protocol: In this study, test compounds were highly purified synthetic samples. The purities of the compounds are expressed as percentages. Individual traps were baited with 1 mg dose/gray septum; five replicate blocks in four orchards; means of 21 total trap checks.

[3] = system: male codling moth; assay: Pheromone preference paired-trap test: pheromone alone vs pheromone + HPV; details: Table 8, trap paired with the HPV of the same table line
Source text: Interaction of synthetic apple and pear odor blends, described above in Table 2, and their effect on the attractancy of synthetic pheromone to codling moth was also studied. For that purpose, series of paired-traps containing pheromone alone or pheromone in combination with synthetic host plant volatile blends were placed in walnut orchards.
Interaction of individual synthetic host plant volatiles or blends on the attractiveness of synthetic male pheromone to male codling moth administered in paired traps with pheromone alone or with pheromone and attractant 10 mg/red septum was also studied.
(§3) Pheromone traps (sticky wing traps, Trécé, Inc.,) were hung as pairs: a pheromone only baited-trap vs. a pheromone+HPV blend-baited trap. The two traps of a test pair were attached in close competitive proximity (120 cm apart) on a common hanger bar (PVC pipe). The paired-trap bars were hung 5-6 meters high on the outer canopies of trees. A single pair-trap was hung per tree and different replicate test trees were separated by five rows in a matrix through the orchard. Each pheromone trap was baited with ½ of a commercial pheromone-impregnated rubber septum (Trécé, Inc.). Septa were sectioned by a razor blade. The HPV blends evaporated from their own separate impregnated rubber septa containing 10 mg diluted in hexane/septum).
(§4) Tests were conducted in a Harley English walnut orchard. Tests spanned the entire two year seasons April-October with traps checked, males sexed, counted and removed every 2-7 days. Significant effect on pheromone trap capture were judged by paired tests either T-test or a nonparametric test.

[4] = system: codling moth; assay: Paired-trap test of pheromone alone vs pheromone + ester blend #10; details: for Total Moths Caught: / Mean ± SEM capture of codling moths: Table 11; for Mean ± SEM capture of codling moths: paired traps, Hartley walnut orchard
Source text: The ability of the HPV ester blend #10 to influence the pheromone attractancy/preference of codling moth was resolved using paired-traps, one trap with a pheromone septum alone and the other trap with a pheromone septum and an ester blend #10 septum. […] Results are seen in Tables 10 and 11, and FIG. 3.
Table 10 illustrates interaction of pheromone with HPV ester blend #10 on codling moth attraction, when tested in a conventional low-population Hartley walnut orchard. There were 13 traps and 18 trap check dates.
as §3, §4

[5] = system: codling moth; assay: Septa colour and loading dose trap study; details: Ph-L2 pheromone
Protocol: Since there have been differences observed between traps containing gray, white or red septa, a study was performed to determine the significance of the specific septa and their effect on the increase or decrease of attractancy. […]

[6] = system: codling moth; assay: Ester blend #10-baited vs pheromone-baited sticky traps; details: Table 13; baited sticky trap
Source text: Attraction of female and male codling moths to ester blend #10 in baited sticky trap is seen in FIG. 1. […] Results are numerically expressed in Table 13.
Table 13 compares two orchard treatments with ester blend #10 and pheromone-only baited sticky traps. […] In the pheromone baited traps, only male insects were captured.
The female flight pattern depicted by capture in ester blend #10-baited sticky traps was related to the male flight pattern to pheromone-baited traps over the 3 month test period. Results are seen in FIG. 2, which is a comparative graph of codling moth flight patterns delineated by males captured in pheromone traps versus both sexes captured in ester blend #10 traps. […] The male pheromone curve rises sooner and lasts longer per flight, while the female ester blend #10 curve drops off sooner. These temporal-phase shifts of the flight curves represent the earlier and longer emergence of male codling moth for each flight period.
as §1, §2

[7] = system: codling moth; assay: Rapid-kill liquid traps baited with ester blend #10 or pheromone
Protocol: Experimental challenge to this question was to use a novel, funnel-liquid-jar-trap (“rapid-kill liquid traps”) to rapidly kill (drown) attracted moths. […] Again, it was the females who were predominantly captured (sex ratio: 1♂:3.0♀♀ insect attracted).
Again, females were preferentially attracted (3:1 ratio) to ester blend #10 rapid kill liquid traps, while only males were seen to be attracted to the pheromone traps.
A second series of inherent attractancy tests were conducted on the most-active HPV blend (ester blend #10) using a novel, funnel-liquid (50:50 water and antifreeze) jar-trap adapted from a prototype of Trece, Inc., to rapidly kill (drown) attracted moths (“rapid-kill liquid traps”). This study comprised of a pheromone standard trap, a control blank trap and seven replicated HPV ester blend #10-baited traps. The rapid-kill traps were hung six meters high on trees distributed five rows apart in a Hartley walnut orchard with a moderate codling moth population. HPV ester blend #10 was loaded on a rubber septa at approximate doses of 10 mg/septum and were replaced every 10 days, while the commercial pheromone septum was replaced monthly.

[8] = system: codling moth; assay: Sticky traps baited with the single compound or pheromone; details: Table 15, sticky trap
Source text: FIG. 5 illustrates mean attraction of female and male codling moths to sticky traps baited with a single host plant volatile, ethyl (2E,4Z)-2,4-decadienoate. The attraction was followed over a two month period.

[9] = Gray Septa, High (high population conventional orchard)
[10] = Gray Septa, Low (low population organic orchard)
[11] = Red Septa, High (high population conventional orchard)
[12] = Red Septa, Low (low population organic orchard)
[13] = 3 traps, 43 trap checks (pheromone: 1 trap, 19 trap checks)

## C/C=C/C=C/CCCCCCCO [Pheromone, (E,E)-8,10-dodecadienol, reference compound]
[1]
  FEMALE CM Captured with HPV; ♀♀/trap night ± SEM: 0.0 ♀♀/trap night
  MALE CM Captured with HPV; ♂♂/trap/night ± SEM: 3.15 ± 0.98 ♂♂/trap/night
  Total CM Captured with HPV: (CM/trap/night ± SEM): 3.15 ± 0.98 CM/trap/night
[2]
  MALE CM Captured: ♂♂/trap/night ± SEM: 7.13 ± 1.94 ♂♂/trap/night
  Total CM Captured: CM/trap/night ± SEM: 7.13 ± 1.94 CM/trap/night
[3]; Orchard #1
  Male CM Captured, Pheromone Alone Trap: ± SEM: 0.73 ± 0.15 ♂♂/trap/night and 1.09 ± 0.27 ♂♂/trap/night and 1.04 ± 0.21 ♂♂/trap/night and 0.79 ± 0.15 ♂♂/trap/night and 1.24 ± 0.52 ♂♂/trap/night and 0.72 ± 0.13 ♂♂/trap/night
[3]; Orchard #3
  Male CM Captured, Pheromone Alone Trap: ± SEM: 2.41 ± 0.42 ♂♂/trap/night and 2.98 ± 0.49 ♂♂/trap/night and 2.33 ± 0.41 ♂♂/trap/night and 4.40 ± 0.87 ♂♂/trap/night and 2.60 ± 0.38 ♂♂/trap/night and 3.82 ± 0.42 ♂♂/trap/night
[4]; Table 10, conventional low-population Hartley walnut orchard
  Total Moths Caught: Male: 46
[4]; Table 10, conventional low-population Hartley walnut orchard, 13 traps, 18 trap check dates
  Male capture, Mean ± SEM: 0.55 Moths/Night
[4]; Test 1
  Total Moths Caught:: 212
[4]; Test 1 (2 Reps)
  Mean ± SEM capture of codling moths: 0.74 ± 0.13 Moths/Trap/Night
[4]; Test 2
  Total Moths Caught:: 745
[4]; Test 2 (2 Reps, 50 trap checks)
  Mean ± SEM capture of codling moths: 2.54 ± 0.43 Moths/Trap/Night
[5]; [9]
  ♂♂ ± SEM (Ph-L2 pheromone): 0.08 ± 0.05
  ♂♂ ± SEM (under Ph-L2 pheromone): 0.05 ± 0.05
[5]; [10]
  ♂♂ ± SEM (Ph-L2 pheromone): 0
  ♂♂ ± SEM (under Ph-L2 pheromone): 1.28 ± 0.61
[5]; [11]
  ♂♂ ± SEM (Ph-L2 pheromone): 0.06 ± 0.06
  ♂♂ ± SEM (under Ph-L2 pheromone): 9.98 ± 2.94
[5]; [12]
  ♂♂ ± SEM (Ph-L2 pheromone): 0
  ♂♂ ± SEM (under Ph-L2 pheromone): 0.80 ± 0.31
[6]
  Female Capture: Mean ± SEM: 0 Moths/Trap/Night
  Female Capture: Sum:: 0 Moths/Trap/Night
  Male Capture: Mean ± SEM: 4.96 ± 1.04 Moths/Trap/Night
  Male Capture: Sum:: 94.3 Moths/Trap/Night
[7]; Table 14
  Female Capture: Sum:: 0 Moths/Trap/Night
  Male Capture: Sum:: 18.3 Moths/Trap/Night
[7]; Table 14, one month
  Female Capture: Mean ± SEM: 0 Moths/Trap/Night
  Male Capture: Mean ± SEM: 3.04 ± 0.08 Moths/Trap/Night
[8]
  Female Capture: Sum:: 0 Moths/Trap/Night
  Male Capture: Sum:: 94.3 Moths/Trap/Night
[8]; [13]
  Female Capture: Mean ± SEM: 0 Moths/Trap/Night
  Male Capture: Mean ± SEM: 4.96 ± 1.04 Moths/Trap/Night
